Laboratory results from ChEMBL document CHEMBL4257227, “Deubiquitinase inhibitors and methods for use of the same” (2016).
Blank lines part the entries; values can stand above or below the compound they belong to. Activity calls are given as the source filed them. The calls are words filed in the database; no cut-off is given here.

Tests used:
A-375 [1] = assay: Induction of apoptosis in human A375 cells with USP5 knock down by annexin V staining based flow cytometry; type: functional
A-375 [2] = assay: Induction of apoptosis in human A375 cells with USP5 knock down assessed as increase in p53 protein expression; type: functional, cell-based
A-375 [3] = assay: Induction of apoptosis in human A375 cells with USP5 knock down assessed as increase in FAS protein expression; type: functional, cell-based
A-375 [4] = assay: Induction of apoptosis in human A375 cells with USP5 knock down assessed as increase in Bax protein expression; type: functional, cell-based
A-375 [5] = assay: Induction of apoptosis in human A375 cells with USP5 knock down assessed as increase in Bid protein expression; type: functional, cell-based
A-375 [6] = assay: Induction of apoptosis in human A375 cells with USP5 knock down assessed as increase in PARP cleavage; type: functional, cell-based
A-375 [7] = assay: Induction of apoptosis in human A375 cells with USP5 and p53 knock down assessed as increase in p53 protein expression; type: functional, cell-based
A-375 [8] = assay: Induction of apoptosis in human A375 cells with USP5 and p53 knock down assessed as increase in FAS protein expression; type: functional, cell-based
A-375 [9] = assay: Induction of apoptosis in human A375 cells with USP5 and p53 knock down assessed as increase in Bax protein expression; type: functional, cell-based
A-375 [10] = assay: Induction of apoptosis in human A375 cells with USP5 and p53 knock down assessed as increase in Bid protein expression; type: functional, cell-based
A-375 [11] = assay: Induction of apoptosis in human A375 cells with USP5 and p53 knock down assessed as increase in PARP cleavage; type: functional, cell-based
SK-MEL19 [12] = assay: Increase in protein ubiquitination in human SK-MEL-19 cells after 24 hrs; type: functional, cell-based
SK-MEL19 [13] = assay: Increase in FAS protein expression in human SK-MEL-19 cells after 24 hrs; type: functional, cell-based
SK-MEL19 [14] = assay: Increase in FASBax protein expression in human SK-MEL-19 cells after 24 hrs; type: functional, cell-based
SK-MEL19 [15] = assay: Induction of apoptosis in human SK-MEL-19 cells assessed as increase in caspase 8 cleavage after 48 to 72 hrs; type: functional, cell-based
SK-MEL19 [16] = assay: Induction of apoptosis in human SK-MEL-19 cells assessed as increase in PARP cleavage after 48 to 72 hrs; type: functional, cell-based
SK-MEL19 [17] = assay: Induction of apoptosis in human SK-MEL-19 cells assessed as increase in Bid protein level after 48 to 72 hrs; type: functional, cell-based
SK-MEL19 [18] = assay: Reduction in DRS levels in human SK-MEL-19 cells; type: functional, cell-based
A-375 [19] = assay: Induction of FAS protein expression in Vemurafenib resistant human A375 cells; type: functional, cell-based
A-375 [20] = assay: Ratio of IC50 for human A375 cells with USP5 knock down to IC50 for human A375 cells; type: functional
[21] = Half life in ip dosed Balb/c mouse by LC-MS analysis; type: ADME, organism-based; conditions: in vivo
[22] = Plasma concentration in Balb/c mouse at 5 mg/kg, iv after 0.5 hrs by LC-MS analysis; type: ADME, organism-based
[23] = Plasma concentration in Balb/c mouse at 5 mg/kg, iv after 2 hrs by LC-MS analysis; type: ADME, organism-based
[24] = Plasma concentration in Balb/c mouse at 5 mg/kg, iv after 4 hrs by LC-MS analysis; type: ADME, organism-based
[25] = Plasma concentration in Balb/c mouse at 5 mg/kg, iv after 7 hrs by LC-MS analysis; type: ADME, organism-based
[26] = AUClast in Balb/c mouse at 5 mg/kg, iv by LC-MS analysis; type: ADME, organism-based; design: dose 5 mg/kg, time 0 - last, route intravenous; conditions: in vivo
[27] = Plasma concentration in Balb/c mouse at 10 mg/kg, po after 0.5 hrs by LC-MS analysis; type: ADME, organism-based
[28] = Plasma concentration in Balb/c mouse at 10 mg/kg, po after 2 hrs by LC-MS analysis; type: ADME, organism-based
[29] = Plasma concentration in Balb/c mouse at 10 mg/kg, po after 7 hrs by LC-MS analysis; type: ADME, organism-based
[30] = AUClast in Balb/c mouse at 10 mg/kg, po by LC-MS analysis; type: ADME, organism-based; design: dose 10 mg/kg, route oral, time 0 - last; conditions: in vivo
[31] = Plasma concentration in Balb/c mouse at 10 mg/kg, po after 4 hrs by LC-MS analysis; type: ADME, organism-based

SMILES: CCCS(=O)(=O)Nc1ccc(F)c(C(=O)c2c[nH]c3ncc(-c4ccc(Cl)cc4)cc23)c1F [VEMURAFENIB]
fold change (FC) (A-375 [1]): >3
Activity (A-375 [2]): Active
Activity (A-375 [3]): Active
Activity (A-375 [4]): Active
Activity (A-375 [5]): Active
Activity (A-375 [6]): Active
Activity (A-375 [7]): inactive
Activity (A-375 [8]): inactive
Activity (A-375 [9]): inactive
Activity (A-375 [10]): inactive
Activity (A-375 [11]): inactive
Activity (SK-MEL19 [12]): Active
Activity (SK-MEL19 [13]): Active
Activity (SK-MEL19 [14]): Active
Activity (SK-MEL19 [15]): Active
Activity (SK-MEL19 [16]): Active
Activity (SK-MEL19 [17]): Active
Activity (SK-MEL19 [18]): Active
Activity (A-375 [19]): inactive
Ratio IC50 (A-375 [20]): 2

half-life [21]: 30 to 60 min
concentration at 0.5 h [22]: 301 to 397 ng/mL
concentration at 2 h [23]: 79.6 to 99.1 ng/mL
concentration at 4 h [24]: 33.4 to 63.1 ng/mL
concentration at 7 h [25]: 33.7 to 71.4 ng/mL
AUC(0-t) [26]: 692 to 993 ng·h/mL
concentration at 0.5 h [27]: 50.8 to 117 ng/mL
concentration at 2 h [28]: 10.6 to 40.6 ng/mL
concentration at 7 h [29]: 11.4 to 15.9 ng/mL
AUC(0-t) [30]: 126 to 280 ng·h/mL
concentration at 4 h [31]: 13.3 to 30 ng/mL
SMILES: CCCC(NC(=O)/C(C#N)=C/c1ccc2cccnc2n1)c1ccccc1 (stereo unspecified)
